# Data: patent US12324830B2 (priority 2018, dated 2025)
# Numbered stars: 1 amine (or outer) side, 2 acyl side, 3 side chain; on linkers, the order of the positions; unused ones are H or OH. Bridge positions count the residues as written; N and C are the ends. Square brackets hold non-standard residues; d marks the D form. Peptide text beside a SMILES is read from it. * marks the point of attachment. hTyr(3S-OH,4S-OH,3'-OSO3H) = N[C@H](C(=O)O)[C@H](O)[C@@H](O)c1ccc(O)c(OS(=O)(=O)O)c1; Orn(4R-OH,5R-OH) = O=C([C@H](C[C@@H](O)[C@@H](O)N[*:3])N[*:1])[*:2]; Pro(3S-OH,4S-Me) = C[C@H]1CN[C@H](C(=O)O)[C@H]1O; X1 = CCCCCOc1ccc(-c2cc(-c3ccc(C(=O)*)cc3)no2)cc1; Gln(3R-OH) = NC(=O)C[C@@H](O)[C@H](N)C(=O)O; Hyp = O=C(O)[C@@H]1C[C@@H](O)CN1
# Tested on: C. auris
# Set-up: species or system mice
# Details: mouse, in vivo
smiles,measurement,value
"CCCCCOc1ccc(-c2cc(-c3ccc(C(=O)N[C@H]4C[C@@H](O)[C@@H](O)NC(=O)[C@@H]5[C@@H](O)[C@@H](C)CN5C(=O)[C@H]([C@H](O)CC(N)=O)NC(=O)[C@H]([C@H](O)[C@@H](O)c5ccc(O)c(OS(=O)(=O)O)c5)NC(=O)[C@@H]5C[C@@H](O)CN5C(=O)[C@H]([C@@H](C)O)NC4=O)cc3)no2)cc1 [micafungin] (X1-[Orn(4R-OH,5R-OH)]T[Hyp][hTyr(3S-OH,4S-OH,3'-OSO3H)][Gln(3R-OH)][Pro(3S-OH,4S-Me)]; lactam 1-C)",survival,20%
